Earlier results, collected in patent publication US11135586B2, “Fluorinated pickering emulsion” (The Board of Trustees of the Leland Stanford Junior …, priority 2014, dated 2021).

O=C1OC2(c3ccc(O)cc3Oc3cc(O)ccc32)c2ccccc21 [fluorescein]
Time without leakage in drops stabilized by surfactants: at least 36 hours
